From patent US11066414B2, “Cot modulators and methods of use thereof” (Gilead Sciences, Inc., priority 2015, dated 2021)
pEC50, pIC50: −log10 of the molar value. Where two headings read alike, the source gives them in different places.

How the values were obtained:
TNFα = test: Cot Monocyte TNFα Cell Based Assay
Human Cot = Human Cot (Homo sapiens (Human), UniProt P41279); test: High Throughput Cot Biochemical Assay; details: Cot HTRF (TR-FRET) biochemical assay
[1] = Homo sapiens, Monocyte, read-out: EC50 TNF, LPS-stimulated human monocytes, TNFα
[2] = read-out: EC50 TNF, LPS-stimulated human monocytes, TNFα

Chain of Human Cot (P41279 30-397): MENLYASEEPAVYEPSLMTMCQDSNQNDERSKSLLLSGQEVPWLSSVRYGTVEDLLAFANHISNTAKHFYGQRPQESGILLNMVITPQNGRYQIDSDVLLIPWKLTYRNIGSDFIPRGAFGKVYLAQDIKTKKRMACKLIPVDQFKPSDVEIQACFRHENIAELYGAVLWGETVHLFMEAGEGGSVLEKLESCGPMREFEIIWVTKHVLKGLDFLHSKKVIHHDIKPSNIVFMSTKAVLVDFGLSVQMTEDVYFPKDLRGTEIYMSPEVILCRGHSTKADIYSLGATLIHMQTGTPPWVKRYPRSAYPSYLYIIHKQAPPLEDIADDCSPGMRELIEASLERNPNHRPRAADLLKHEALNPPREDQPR

pEC50 (TNFα; [1])	pIC50 (Human Cot; IC50 HTRF)	Structure (SMILES)	pEC50 (TNFα; [2])	pIC50 (Human Cot; read-out: IC50 HTRF)
6.92	8.30	[2H]C([2H])([2H])C([2H])([2H])C(Nc1c(C#N)cnc2c(Cl)cc(N[C@@]([2H])(c3ccc(F)nc3)c3cn(C4CC4)nn3)cc12)c1ccccc1 (stereo partly drawn) [Example 115, 8-chloro-6-(((S)-(1-cyclopropyl-1H-1,2,3-triazol-4-yl)(6-fluoropyridin-3-yl)methyl-d)amino)-4-((1-phenylpropyl-2,2,3,3,3-d5)amino)quinoline-3-carbonitrile]		
6.84	8.52	[2H][C@](Nc1cc(C#N)c2ncc(C#N)c(NCC(C)(C)C)c2c1)(c1ccc(F)nc1)c1cn(C2CC2)nn1 [Example 116, (S)-6-(((1-cyclopropyl-1H-1,2,3-triazol-4-yl)(6-fluoropyridin-3-yl)methyl-d)amino)-4-(neopentylamino)quinoline-3,8-dicarbonitrile]		
7.03	8.52	[2H][C@](Nc1cc(C#N)c2ncc(C#N)c(N[C@H](CC)c3ccccc3)c2c1)(c1ccc(F)nc1)c1cn(C2CC2)nn1 [Example 117, 6-(((S)-(-cyclopropyl-1H-1,2,3-triazol-4-yl)(6-fluoropyridin-3-yl)methyl-d)amino)-4-(((R)-1-phenylpropyl)amino)quinoline-3,8-dicarbonitrile]		
6.82	8.22	[2H][C@](Nc1cc(Cl)c2ncc(C#N)c(N[C@H](CC)c3ccccc3)c2c1)(c1ccc(F)nc1)c1cn(C(C)(C)C)nn1 [Example 118, 6-(((S)-(1-(tert-butyl)-1H-1,2,3-triazol-4-yl)(6-fluoropyridin-3-yl)methyl-d)amino)-8-chloro-4-(((R)-1-phenylpropyl)amino)quinoline-3-carbonitrile]		
		CC[C@@H](Nc1c(C#N)cnc2c(F)cc(N[C@@H](c3ccc(F)nc3)c3cn(C4CC4)nn3)cc12)c1ccccc1 [Example 120, 6-(((S)-(-cyclopropyl-1H-1,2,3-triazol-4-yl)(6-fluoropyridin-3-yl)methyl-d)amino)-8-fluoro-4-(((R)-1-phenylpropyl)amino)quinolme-3-carbonitrile]	6.86	8.30
6.77	8.15	[2H]C(Nc1cc(Cl)c2ncc(C#N)c(N[C@H](CCO)c3ccccc3)c2c1)(c1ccc(F)nc1)c1cn(C2CC2)nn1 (stereo partly drawn) [Example 121, 8-chloro-6-(((1-cyclopropyl-1H-1,2,3-triazol-4-yl)(6-fluoropyridin-3-yl)methyl-d)amino)-4-(((R)-3-hydroxy-1-phenylpropyl)amino)quinoline-3-carbonitrile]		
6.62	8.22	[2H]C(Nc1cc(Cl)c2ncc(C#N)c(N[C@H](CC)c3ccccc3)c2c1)(c1cn(C2CC2)nn1)c1ccc(Cl)nc1C (stereo partly drawn) [Example 122, 8-chloro-6-(((6-chloro-2-methylpyridin-3-yl)(1-cyclopropyl-1H-1,2,3-triazol-4-yl)methyl-d)amino)-4-(((R)-1-phenylpropyl)amino)quinoline-3-carbonitrile]		
6.71	8.22	[2H]C(Nc1cc(Cl)c2ncc(C#N)c(N[C@H](CC)c3ccccc3)c2c1)(c1cn(C2CC2)nn1)c1cc(C#N)cs1 (stereo partly drawn) [Example 123, 8-chloro-6-(((4-cyanothiophen-2-yl)(1-cyclopropyl-1H-1,2,3-triazol-4-yl)methyl-d)amino)-4-(((R)-1-phenylpropyl)amino)quinoline-3-carbonitrile]		
		CC[C@@H](Nc1c(C#N)cnc2c(Cl)cc(NC(c3cn(C4CC4)nn3)c3cccnc3Cl)cc12)c1ccccc1 (stereo partly drawn) [Example 124, 8-chloro-6-(((2-chloropyridin-3-yl)(1-cyclopropyl-1H-1,2,3-triazol-4-yl)methyl-d)amino)-4-(((R)-1-phenylpropyl)amino)quinolme-3-carbonitrile]	6.42	8.10
7.11	8.52	[2H]C(Nc1cc(Cl)c2ncc(C#N)c(NCC(C)(C)C)c2c1)(c1cn(C2CC2)nn1)c1ccc(Cl)nc1C (stereo not drawn) [Example 125, 8-chloro-6-(((6-chloro-2-methylpyridin-3-yl)(1-cyclopropyl-1H-1,2,3-triazol-4-yl)methyl-d)amino)-4-(neopentylamino)quinoline-3-carbonitrile]		
6.84	8.52	[2H]C(Nc1cc(Cl)c2ncc(C#N)c(NCC(C)(C)C)c2c1)(c1cn(C2CC2)nn1)c1cccnc1Cl (stereo not drawn) [Example 126, 8-chloro-6-(((2-chloropyridin-3-yl)(1-cyclopropyl-1H-1,2,3-triazol-4-yl)methyl-d)amino)-4-(neopentylamino)quinoline-3-carbonitrile]		
6.71	7.80	[2H][C@](Nc1cc(Cl)c2ncc(C#N)c(Nc3c(F)ccc(Cl)c3F)c2c1)(c1ccc(F)nc1)c1cn(C2CC2)nn1 [Example 127, (S)-8-chloro-4-((3-chloro-2,6-difluorophenyl)amino)-6-(((1-cyclopropyl-1H-1,2,3-triazol-4-yl)(6-fluoropyridin-3-yl)methyl-d)amino)quinoline-3-carbonitrile]		
< 5.00	6.16	[2H][C@](Nc1cc(Cl)c2ncc(C#N)c(N[C@@H](CC#N)c3ccccc3)c2c1)(c1ccc(F)nc1)c1cn(C2CC2)nn1 [Example 128, 8-chloro-4-(((S)-2-cyano-1-phenylethyl)amino)-6-(((S)-(1-cyclopropyl-1H-1,2,3-triazol-4-yl)(6-fluoropyridin-3-yl)methyl-d)amino)quinoline-3-carbonitrile]		
7.09	8.70	[2H][C@](Nc1cc(Cl)c2ncc(C#N)c(N[C@H](CC#N)c3ccccc3)c2c1)(c1ccc(F)nc1)c1cn(C2CC2)nn1 [Example 129, 8-chloro-4-(((R)-2-cyano-1-phenylethyl)amino)-6-(((S)-(1-cyclopropyl-1H-1,2,3-triazol-4-yl)(6-fluoropyridin-3-yl)methyl-d)amino)quinoline-3-carbonitrile]		
7.31	8.70	Cc1ncccc1[C@H](Nc1cc(Cl)c2ncc(C#N)c(NCC(C)(C)C)c2c1)c1cn(C2CC2)nn1 [Example 131, (S)-8-chloro-6-(((1-cyclopropyl-1H-1,2,3-triazol-4-yl)(2-methylpyridin-3-yl)methyl)amino)-4-(neopentyl-amino)quinoline-3-carbonitrile]		
6.71	8.22	[2H][C@](Nc1cc(Cl)c2ncc(C#N)c(N[C@H](CC)c3ccccc3)c2c1)(c1ccc(F)nc1)c1c[nH]nn1 [Example 134, 8-chloro-6-(((S)-(6-fluoropyridin-3-yl)(1H-1,2,3-triazol-4-yl)methyl-d)amino)-4-(((R)-1-phenylpropyl)amino)quinoline-3-carbonitrile]		
6.85	8.52	[2H][C@](Nc1cc(Cl)c2ncc(C#N)c(NCC(C)(C)C)c2c1)(c1cccnc1)c1cn(-c2cccnc2)nn1 [Example 138, (S)-8-chloro-4-(neopentylamino)-6-((pyridin-3-yl(1-(pyridin-3-yl)-1H-1,2,3-triazol-4-yl)methyl-d)amino)quinoline-3-carbonitrile]		
7.04	8.70	[2H][C@](Nc1cc(Cl)c2ncc(C#N)c(Nc3cnc(F)c(Cl)c3)c2c1)(c1ccc(F)nc1)c1cn(C2CC2)nn1 [Example 139, (S)-8-chloro-4-((5-chloro-6-fluoropyridin-3-yl)amino)-6-(((1-cyclopropyl-1H-1,2,3-triazol-4-yl)(6-fluoropyridin-3-yl)methyl-d)amino)quinoline-3-carbonitrile]		
6.74	8.52	[2H][C@](Nc1cc(Cl)c2ncc(C#N)c(Nc3cnc(F)c(F)c3)c2c1)(c1ccc(F)nc1)c1cn(C2CC2)nn1 [Example 140, (S)-8-chloro-6-(((1-cyclopropyl-1H-1,2,3-triazol-4-yl)(6-fluoropyridin-3-yl)methyl-d)amino)-4-((5,6-difluoropyridin-3-yl)amino)quinoline-3-carbonitrile]		
6.92	8.70	[2H][C@](Nc1cc(Cl)c2ncc(C#N)c(NCC(C)(C)C)c2c1)(c1cccnc1)c1cn(C2CC2)nn1 [Example 141, (S)-8-chloro-6-(((1-cyclopropyl-1H-1,2,3-triazol-4-yl)(pyridin-3-yl)methyl-d)amino)-4-(neopentylamino)quinoline-3-carbonitrile]		
7.18	8.70	[2H][C@](Nc1cc(Cl)c2ncc(C#N)c(NCC(C)(C)C)c2c1)(c1ccc(F)nc1)c1cn(C2CC2)nn1 [Example 142, (S)-8-chloro-6-(((1-cyclopropyl-1H-1,2,3-triazol-4-yl)(6-fluoropyridin-3-yl)methyl-d)amino)-4-(neopentylamino)quinoline-3-carbonitrile]		
6.05	7.80	[2H][C@](Nc1cc(Cl)c2ncc(C#N)c(Nc3cnc(F)c(F)c3)c2c1)(c1cncc(C#N)c1)c1cn(C2CC2)nn1 [Example 143, (S)-8-chloro-6-(((5-cyanopyridin-3-yl)(1-cyclopropyl-1H-1,2,3-triazol-4-yl)methyl-d)amino)-4-((5,6-difluoropyridin-3-yl)amino)quinoline-3-carbonitrile]		
6.43	8.00	N#Cc1cnc2c(Cl)cc(N[C@@H](c3cncc(Cl)c3)c3cn(C4CC4)nn3)cc2c1Nc1cnc(F)c(F)c1 [Example 146, (S)-8-chloro-6-(((5-chloropyridin-3-yl)(1-cyclopropyl-1H-1,2,3-triazol-4-yl)methyl)amino)-4-((5,6-difluoropyridin-3-yl)amino)-quinoline-3-carbonitrile]		
6.42	8.10	N#Cc1cnc2c(Cl)cc(N[C@H](c3cn(C4CC4)nn3)c3ccc(F)nc3F)cc2c1Nc1cnc(F)c(F)c1 [Example 149, (S)-8-chloro-6-(((1-cyclopropyl-1H-1,2,3-triazol-4-yl)(2,6-difluoropyridin-3-yl)methyl)amino)-4-((5,6-difluoropyridin-3-yl)amino)quinoline-3-carbonitrile]		
